Source: patent publication US20140296343A1, “NON-PEPTIDE BDNF NEUROTROPHIN MIMETICS” (PharmatrophiX, Inc., priority 2010, published 2014)

B1: BDNF: Brain Derived Neurotrophic Factor, a neurotrophin; native ligand of TrkB (protein, UniProt P23560 19-247, looked up)
Neurotrophic factor BDNF …: APMKEANIRGQGGLAYPGVRTHGTLESVNGPKAGSRGLTSLADTFEHVIEELLDEDQKVRPNEENNKDADLYTSRVMLSSQVPLEPPLLFLLEEYKNYLDAANMSMRVRRHSDPARRGELSVCDSISEWVTAADKKTAVDMSGGTVTVLEKVPVSKGQLKQYFYETKCNPMGYTKEGCRGIDKRHWNSQCRTTQSYVRALTMDSKKRIGWRFIRIDTSCVCTLTIKRGR

Assays:
[1] = test system: mouse E16 striatal neurons; conditions: cited from earlier work
[2] = test system: E16-17 hippocampal neurons; assay: Aβ-induced neuronal degeneration (Alzheimer's disease model); format: cell-based; conditions: for prevention of Aβ-induced degeneration: Aβ1-42 oligomer 10 μM
Experimental: The ability of the BDNF mimetics to prevent Aβ-induced neuronal degeneration can be tested as a model of the compounds' ability to treat Alzheimer's disease. E16-17 hippocampal neurons are matured for 6 days and then incubated for 3 days with the indicated combinations of Aβ oligomer preparations (Dahigren, K. N., et al. (2002) J Biol Chem 277, 32046-32053), neurotrophins and neurotrophin mimetics. Following the three day incubation, neuronal survival is assessed using standard morphological criteria (Massa, S. M., et al. (2006) J Neurosci 26, 5288-5300).
Addition of Aβ1-42 oligomer (10 μM) but not control AβScrambled oligomer (10 μM) results in an approximate 40% reduction in neuronal survival. […] The effectiveness of BDNF mimetics of the present invention can be compared to BDNF in blocking Aβ-induced degeneration.

[3] = target: T1, TrkC (Homo sapiens, UniProt Q16288); assay: Trk activation by Western blot of phospho-Trk in NIH3T3 cells expressing TrkC; format: cell-based
T1 construct: expressed in transfected cells; host or cells: NIH3T3 (mouse fibroblasts, no native Trk receptors)
Experimental: (§1) To assess the interactions of the BDNF loop 2 mimetic compounds with TrkB receptors, the ability of the compounds of the invention to activate TrkA, TrkB, and TrkC is compared in a series of Western blotting experiments. […] Western blots were used to detect phospho-Trk which is a standard method for detecting Trk activation.
A measurement of NIH3T3 cells expressing TrkC can also be used to evaluate the compounds of the invention. Total amount of TrkC present is determined by probing with anti-TrkC antibodies.

[4] = target: T2, TrkB (Homo sapiens, UniProt Q16620); assay: Trk activation by Western blot of phospho-Trk in NIH3T3 cells expressing TrkB; format: cell-based
T2 construct: expressed in transfected cells; host or cells: NIH3T3 (mouse fibroblasts, no native Trk receptors)
Description: as §1

[5] = target: T3, TrkA (Homo sapiens, UniProt P04629); assay: Trk activation by Western blot of phospho-Trk in NIH3T3 cells expressing TrkA; format: cell-based
T3 construct: expressed in transfected cells; host or cells: NIH3T3 (mouse fibroblasts, no native Trk receptors)
Description: as §1

T2 sequence (Q16620 32-822): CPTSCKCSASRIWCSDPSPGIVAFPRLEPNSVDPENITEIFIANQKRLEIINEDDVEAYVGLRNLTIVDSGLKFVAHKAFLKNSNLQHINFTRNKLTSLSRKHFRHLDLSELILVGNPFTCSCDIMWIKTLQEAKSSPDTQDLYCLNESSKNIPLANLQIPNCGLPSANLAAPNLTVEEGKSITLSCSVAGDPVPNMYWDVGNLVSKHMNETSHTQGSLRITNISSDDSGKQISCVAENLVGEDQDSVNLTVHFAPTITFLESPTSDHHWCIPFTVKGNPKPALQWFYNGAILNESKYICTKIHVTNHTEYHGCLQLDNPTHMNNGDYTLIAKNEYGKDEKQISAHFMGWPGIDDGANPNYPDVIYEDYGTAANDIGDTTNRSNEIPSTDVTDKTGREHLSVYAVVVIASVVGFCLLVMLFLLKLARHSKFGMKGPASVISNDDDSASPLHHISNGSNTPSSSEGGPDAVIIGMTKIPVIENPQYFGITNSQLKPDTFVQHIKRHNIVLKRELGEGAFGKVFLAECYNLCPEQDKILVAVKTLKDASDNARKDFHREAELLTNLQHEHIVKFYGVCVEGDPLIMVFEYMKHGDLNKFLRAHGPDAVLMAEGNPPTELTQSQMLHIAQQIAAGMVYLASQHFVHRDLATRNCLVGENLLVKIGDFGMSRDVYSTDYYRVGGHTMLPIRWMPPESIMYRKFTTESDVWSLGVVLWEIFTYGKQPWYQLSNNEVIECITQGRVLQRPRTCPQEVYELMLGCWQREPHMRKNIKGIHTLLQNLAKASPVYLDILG
T1 sequence (Q16288 32-839): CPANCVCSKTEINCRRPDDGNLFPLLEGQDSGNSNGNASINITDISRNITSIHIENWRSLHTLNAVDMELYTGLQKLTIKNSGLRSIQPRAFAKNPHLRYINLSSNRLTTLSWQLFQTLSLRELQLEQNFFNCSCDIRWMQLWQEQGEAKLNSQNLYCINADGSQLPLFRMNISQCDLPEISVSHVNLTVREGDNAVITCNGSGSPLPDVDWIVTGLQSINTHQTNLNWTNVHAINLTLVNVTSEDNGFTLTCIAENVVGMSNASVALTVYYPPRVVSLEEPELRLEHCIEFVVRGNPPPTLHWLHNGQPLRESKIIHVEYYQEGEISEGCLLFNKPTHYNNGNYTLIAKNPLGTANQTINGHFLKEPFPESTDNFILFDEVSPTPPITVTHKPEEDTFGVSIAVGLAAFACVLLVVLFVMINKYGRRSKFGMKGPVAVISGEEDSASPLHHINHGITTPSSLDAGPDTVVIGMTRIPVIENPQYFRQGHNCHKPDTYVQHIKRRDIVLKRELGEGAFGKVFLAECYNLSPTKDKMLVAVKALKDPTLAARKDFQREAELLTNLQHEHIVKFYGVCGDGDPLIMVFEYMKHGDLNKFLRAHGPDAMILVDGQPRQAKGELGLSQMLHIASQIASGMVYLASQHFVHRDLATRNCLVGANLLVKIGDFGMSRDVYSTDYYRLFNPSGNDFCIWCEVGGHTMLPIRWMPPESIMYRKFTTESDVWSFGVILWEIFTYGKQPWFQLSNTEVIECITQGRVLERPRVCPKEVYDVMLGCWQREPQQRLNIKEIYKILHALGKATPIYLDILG
T3 sequence (P04629 33-796): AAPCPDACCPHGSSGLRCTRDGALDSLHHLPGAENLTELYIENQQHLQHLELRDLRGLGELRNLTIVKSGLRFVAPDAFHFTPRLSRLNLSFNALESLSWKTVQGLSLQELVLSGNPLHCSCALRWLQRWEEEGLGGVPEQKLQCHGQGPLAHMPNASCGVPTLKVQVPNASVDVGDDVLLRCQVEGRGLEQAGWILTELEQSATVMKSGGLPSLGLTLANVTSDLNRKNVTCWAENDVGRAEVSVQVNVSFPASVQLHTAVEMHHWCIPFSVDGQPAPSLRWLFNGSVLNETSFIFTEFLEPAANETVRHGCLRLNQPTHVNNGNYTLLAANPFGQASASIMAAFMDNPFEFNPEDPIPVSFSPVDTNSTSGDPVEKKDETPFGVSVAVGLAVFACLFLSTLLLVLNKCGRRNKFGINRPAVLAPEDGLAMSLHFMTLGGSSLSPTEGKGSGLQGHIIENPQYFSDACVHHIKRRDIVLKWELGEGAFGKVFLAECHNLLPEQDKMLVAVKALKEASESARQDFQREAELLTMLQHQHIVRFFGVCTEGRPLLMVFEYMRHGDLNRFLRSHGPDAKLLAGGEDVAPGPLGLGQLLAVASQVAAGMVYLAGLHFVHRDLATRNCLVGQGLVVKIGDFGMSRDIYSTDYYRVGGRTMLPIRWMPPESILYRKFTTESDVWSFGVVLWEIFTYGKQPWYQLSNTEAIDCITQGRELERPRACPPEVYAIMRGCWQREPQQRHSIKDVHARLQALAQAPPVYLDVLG

| Molecule | phosphorylation of Trk in TrkC-expressing cells [3] | prevention of Aβ-induced degeneration ([2]; 3 day incubation) | activation of TrkB (Trk phosphorylation, anti-TrkY490) [4] | also measured |
| --- | --- | --- | --- | --- |
| COC(=O)[C@@]1(O)C[C@H]2O[C@]1(C)n1c3ccccc3c3c4c(c5c6ccccc6n2c5c31)C(=O)NC4 [Compound K252a] |  |  |  | effect on quinolinic acid-induced death ([1]; K252a alone): no effect; effect on the ability of BDNF to prevent quinolinic acid-induced death ([1]; K252a with BDNF): blocks the ability of BDNF to prevent death |
| Aβ1-42 oligomer: amyloid-β 1-42 oligomer preparation used to induce neuronal degeneration [reference compound] |  |  |  | reduction in neuronal survival ([2]; 10 μM, 3 day incubation): ~40% |
| NT-3: Neurotrophin-3; native ligand of TrkC | promotes the phosphorylation of Trk |  |  |  |
| CC[C@H](C)[C@H](N)C(=O)NCCN1CCOCC1 [LM11A-31, reference compound] |  | blocks Aβ-induced degeneration |  |  |
| NGF: Nerve Growth Factor, a neurotrophin; native ligand of TrkA |  | fails to prevent Aβ-induced degeneration | do not activate TrkB | effect on LM11A-31 blocking of Aβ-induced degeneration ([2]; NGF together with LM11A-31): blocked |
| B1 | do not |  | activate TrkB | prevention of quinolinic acid-induced death ([1]; previous work): can prevent quinolinic acid-induced death; activation of TrkA (Trk phosphorylation) [5]: does not |
